Test results taken from ChEMBL document CHEMBL5506010, “Butyrylcholinesterase-Activated Near-Infrared Fluorogenic Probe for In Vivo Theranostics of Alzheimer's Disease” (J Med Chem, 2024).
Calls of active or inactive are those of the source. No cut-off for these calls is given here.

Columns and labels:
Cholinesterase [1] = biological target: T1, Cholinesterase (Homo sapiens, UniProt P06276); experiment: Binding affinity to BChE in human SH-SY5Y cells at 10 uM incubated for 1 hrs by fluorescence based confocal laser scanning microscopic analysis; assay type: cell-based
T1 sequence (P06276 whole entry): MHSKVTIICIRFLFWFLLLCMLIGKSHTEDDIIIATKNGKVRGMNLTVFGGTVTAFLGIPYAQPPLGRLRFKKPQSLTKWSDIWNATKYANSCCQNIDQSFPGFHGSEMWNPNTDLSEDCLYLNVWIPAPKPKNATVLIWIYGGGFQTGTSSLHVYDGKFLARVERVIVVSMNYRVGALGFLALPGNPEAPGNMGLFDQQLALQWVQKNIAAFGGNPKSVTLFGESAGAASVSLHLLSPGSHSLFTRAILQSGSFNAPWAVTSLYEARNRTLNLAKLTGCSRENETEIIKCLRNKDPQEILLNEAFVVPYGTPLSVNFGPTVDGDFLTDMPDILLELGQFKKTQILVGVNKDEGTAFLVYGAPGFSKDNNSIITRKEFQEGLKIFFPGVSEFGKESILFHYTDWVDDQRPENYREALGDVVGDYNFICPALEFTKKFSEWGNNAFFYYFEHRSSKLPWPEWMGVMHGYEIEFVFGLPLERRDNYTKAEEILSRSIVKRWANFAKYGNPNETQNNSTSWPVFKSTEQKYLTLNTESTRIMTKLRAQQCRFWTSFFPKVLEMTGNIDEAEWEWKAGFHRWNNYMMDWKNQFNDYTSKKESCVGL

[2] = biological target: Cholinesterase (Mus musculus) (UniProt Q03311); experiment: Binding affinity to BChE in mouse HT-22 cells at 10 uM incubated for 1 hrs by fluorescence based confocal laser scanning microscopic analysis; assay type: cell-based
Cholinesterase (Mus musculus), sequence (Q03311 whole entry): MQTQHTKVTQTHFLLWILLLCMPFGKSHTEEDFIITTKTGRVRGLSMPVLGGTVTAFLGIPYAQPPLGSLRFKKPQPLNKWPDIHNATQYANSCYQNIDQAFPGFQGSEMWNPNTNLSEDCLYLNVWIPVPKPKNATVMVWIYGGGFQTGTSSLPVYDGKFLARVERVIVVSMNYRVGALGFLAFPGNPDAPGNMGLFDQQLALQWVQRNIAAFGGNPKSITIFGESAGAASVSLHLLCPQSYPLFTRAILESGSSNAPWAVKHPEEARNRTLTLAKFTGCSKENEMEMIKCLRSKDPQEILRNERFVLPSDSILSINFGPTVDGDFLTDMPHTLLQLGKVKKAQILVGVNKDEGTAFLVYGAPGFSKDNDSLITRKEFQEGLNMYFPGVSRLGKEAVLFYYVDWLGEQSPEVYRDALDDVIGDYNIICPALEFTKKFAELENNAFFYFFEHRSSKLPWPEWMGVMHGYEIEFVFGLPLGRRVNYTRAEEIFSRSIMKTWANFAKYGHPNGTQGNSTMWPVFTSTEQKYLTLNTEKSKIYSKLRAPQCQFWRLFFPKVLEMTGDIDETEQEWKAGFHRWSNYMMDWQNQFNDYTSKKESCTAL

PC-12 [3] = experiment: Binding affinity to BChE in rat PC-12 cells assessed as increase in fluorescence intensity preincubated with tacrine for 24 hrs followed by compound addition and measured after 1 hrs by fluorescence based confocal laser scanning microscopic analysis; assay type: cell-based
PC-12 [4] = experiment: Binding affinity to BChE in rat PC-12 cells assessed as increase in fluorescence intensity preincubated with S11-1014 for 24 hrs followed by compound addition and measured after 1 hrs by fluorescence based confocal laser scanning microscopic analysis; assay type: cell-based
Acetylcholinesterase [5] = biological target: T2, Acetylcholinesterase (Homo sapiens, UniProt P22303); experiment: Inhibition of human AChE using acetylthiocholine iodide as substrate at 10 uM preincubated for 5 mins followed by substrate addition and measured immediately by Ellmans method relative to control
T2 sequence (P22303 whole entry): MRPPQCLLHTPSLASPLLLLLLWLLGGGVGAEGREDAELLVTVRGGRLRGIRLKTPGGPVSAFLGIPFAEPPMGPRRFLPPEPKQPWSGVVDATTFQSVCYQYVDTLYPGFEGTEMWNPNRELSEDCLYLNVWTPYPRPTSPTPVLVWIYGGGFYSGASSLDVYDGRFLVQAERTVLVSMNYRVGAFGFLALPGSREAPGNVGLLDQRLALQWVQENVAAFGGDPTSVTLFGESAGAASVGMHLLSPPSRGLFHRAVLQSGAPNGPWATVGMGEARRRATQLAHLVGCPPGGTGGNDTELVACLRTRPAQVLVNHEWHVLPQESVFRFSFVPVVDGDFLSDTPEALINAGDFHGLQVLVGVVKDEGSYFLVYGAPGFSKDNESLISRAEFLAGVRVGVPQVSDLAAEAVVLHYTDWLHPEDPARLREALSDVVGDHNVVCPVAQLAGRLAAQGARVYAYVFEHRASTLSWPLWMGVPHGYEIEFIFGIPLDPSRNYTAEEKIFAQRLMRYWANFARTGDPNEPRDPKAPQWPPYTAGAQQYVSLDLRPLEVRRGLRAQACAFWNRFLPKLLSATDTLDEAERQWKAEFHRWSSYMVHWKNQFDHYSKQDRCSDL

SH-SY5Y [6] = experiment: Neuroprotective activity against amyloid-beta (1 to 42)-induced human SH-SY5Y cells assessed as increase in ACh level in cell lysate at 10 to 20 uM incubated for 24 hrs by ELISA; assay type: functional, cell-based; settings: dose 10-20 µM
SH-SY5Y [7] = experiment: Neuroprotective activity against amyloid-beta (1 to 42)-induced human SH-SY5Y cells assessed as decrease in amyloid beta (1 to 42) level in culture medium at 10 to 20 uM incubated for 24 hrs by ELISA; assay type: functional, cell-based; settings: dose 10-20 µM
SH-SY5Y [8] = experiment: Neuroprotective activity against amyloid-beta (1 to 42)-induced human SH-SY5Y cells assessed as decrease in amyloid beta (1 to 42) level in cell lysate at 10 to 20 uM incubated for 24 hrs by ELISA; assay type: functional, cell-based; settings: dose 10-20 µM
HT-22 = experiment: Inhibition of H2O2-induced ROS release in mouse HT-22 cells assessed as increase in red fluorescence at 1 to 10 uM preincubated for 1 hrs followed by H2O2 addition and measured after 24 hrs by DCFH-DA based confocal laser scanning microscopic analysis; assay type: functional, cell-based; settings: dose 1-10 µM, time 25.0 hrs
[9] = biological target: Cholinesterase (Mus musculus) (UniProt Q03311); experiment: Binding affinity to BChE in mouse HT-22 cells assessed as increase in fluorescence at 10 uM incubated for 1 hrs in presence of DCF by laser confocal imaging analysis; assay type: cell-based
[10] = Permeability of compound incubated for 18 hrs by PAMPA-BBB based UV plate spectroscopic reader analysis; assay type: ADME; settings: read-out: permeability
[11] = Stability of compound in male ICR mouse brain at 100 uM, iv measured after 24 hrs by fluorescence microplate reader; assay type: ADME, organism-based
[12] = Stability of compound at pH 12 measured within 3 mins by microplate reader analysis; assay type: physicochemical; settings: buffer, pH 12, 0.05 h
[13] = Stability of compound in male ICR mouse plasma at 100 uM, iv measured after 30 mins by fluorescence microplate reader; assay type: ADME, organism-based; settings: 0.5 h
[14] = Drug uptake in brain of 7-month old APP/[…] transgenic AD-mouse model assessed as increase in fluorescence at 100 uM, iv measured after 1 hrs by fluorescence imaging analysis; assay type: ADME, organism-based; settings: in vivo
[15] = Drug uptake in wildtype mouse brain assessed as increase in fluorescence at 100 uM, iv by fluorescence scanning analysis; assay type: ADME, organism-based; settings: in vivo
[16] = Drug uptake in brain of 6 weeks old AD-mouse model assessed as increase in fluorescence at 100 uM, iv by fluorescence scanning analysis; assay type: ADME, organism-based; settings: in vivo
[17] = Drug uptake in wildtype mouse brain assessed as increase in fluorescence at 100 uM, iv preadministered with tacrine for 4 hrs followed by compound administration by fluorescence scanning analysis; assay type: ADME, organism-based; settings: in vivo
Mus musculus [18] = experiment: Antialzheimer activity in APP/PS1 transgenic AD mouse model assessed as improvement in memory administered intravenously once every 2 days for 10 times followed by morris water maze training from day 21 to 25 and measured on day 26 by Morris water maze test; assay type: functional, organism-based; settings: route iv, time 26.0 day
Mus musculus [19] = experiment: Antialzheimer activity in APP/PS1 transgenic AD mouse model assessed as improvement in memory administered intravenously once every 2 days for 10 times and measured on day 26 by Y maze test; assay type: functional, organism-based; settings: route iv, time 26.0 day
Mus musculus [20] = experiment: Antialzheimer activity in APP/PS1 transgenic AD mouse model assessed as improvement in NC scores administered intravenously once every 2 days for 10 times and measured on day 27 by Nest construction test; assay type: functional, organism-based; settings: route iv, time 27.0 day
Mus musculus [21] = experiment: Antialzheimer activity in APP/PS1 transgenic AD mouse model assessed as decrease in amyloid beta (1 to 42) level administered intravenously once every 2 days for 10 times and measured on day 30 by ELISA; assay type: functional, organism-based; settings: route iv, time 30.0 day
[22] = Toxicity in APP/PS1 transgenic AD mouse model assessed as liver damage administered intravenously once every 2 days for 10 times and measured on day 30 by H and E staining based analysis; assay type: tissue-based; settings: in vivo, iv, 720 h, time 30 day
Homo sapiens = species on record: Homo sapiens; experiment: Binding affinity to carboxylesterase (unknown origin) by fluorescence analysis
Acetylcholinesterase [23] = biological target: T2, Acetylcholinesterase; experiment: Binding affinity to AChE (unknown origin) by fluorescence analysis
Cholinesterase [24] = biological target: T1, Cholinesterase; experiment: Binding affinity to BChE (unknown origin) in PBS assessed as maximum initial reaction rate by fluorometric method

Question: With `CCN(CC)Cc1ccccc1CNC(=O)c1cccc(NC(=O)c2cccc(C(=O)NCCn3cc(CCC[N+]4=C(/C=C/C5=C6Oc7cc(OC(=O)C8CC8)ccc7C=C6CCC5)C(C)(C)c5ccccc54)nn3)c2)c1.[I-]` as the molecule, how does the Activity (Cholinesterase [1]) read?
Answer: Active

Question: And the Activity [2]?
Answer: Active

Question: And the Activity (PC-12 [3])?
Answer: inactive

Question: And the Activity (PC-12 [4])?
Answer: inactive

Question: And the inhibition (Acetylcholinesterase [5])?
Answer: 12.3%

Question: And the Activity (SH-SY5Y [6])?
Answer: Active

Question: What about the Activity (SH-SY5Y [7]) of the same molecule?
Answer: Active

Question: What about the Activity (SH-SY5Y [8]) of the same molecule?
Answer: Active

Question: What about the inhibition (HT-22) of the same molecule?
Answer: Active

Question: And the Activity [9]?
Answer: inactive

Question: And the Papp at 18 h [10]?
Answer: 15.5 ×10⁻⁶ cm/s

Question: And the Stability [11]?
Answer: Unstable

Question: What about the Stability [12] of the same molecule?
Answer: Unstable

Question: What about the Stability [13] of the same molecule?
Answer: Stable

Question: What about the Drug uptake [14] of the same molecule?
Answer: Active

Question: What about the Drug uptake [15] of the same molecule?
Answer: Active

Question: And the Drug uptake [16]?
Answer: Active

Question: What about the Drug uptake [17] of the same molecule?
Answer: Not Active

Question: And the Activity (Mus musculus [18])?
Answer: Active

Question: What about the Activity (Mus musculus [19]) of the same molecule?
Answer: inactive

Question: And the Activity (Mus musculus [20])?
Answer: Active

Question: What about the Activity (Mus musculus [21]) of the same molecule?
Answer: Active

Question: What about the Activity [22] of the same molecule?
Answer: Non-Toxic

Question: What about the Activity (Homo sapiens) of the same molecule?
Answer: inactive

Question: What about the Activity (Acetylcholinesterase [23]) of the same molecule?
Answer: inactive

Question: And the Activity (Cholinesterase [24])?
Answer: 3.02 µM/min
